From patent US12492356B2, “Oxa-sandalwood-type fragrance compounds” (SYMRISE AG, priority 2020, dated 2025) come the findings set out here.

The subject of one test is panel of at least four experts. As to the kind of experiment: Odor detection threshold (ODT), olfactometer TO8, DIN standard EN 13725. To be noted: comparator not named in the sentence (commercial analogue). The text has this: The odor detection threshold (in the following abbreviated as “ODT”) is defined as the lowest concentration of a certain odorous compound (gaseous, sensorially active substance) which is perceivable and thus which can be distinguished with certainty from a blank reference under standard conditions. Generally, lower ODT values are preferred as a lower amount of the fragrance compound is required in order to a achieve strong odor impressions and thus lower amounts can be used for perfuming. However, as the threshold depends on various factors such as concentration, solubility, partition coefficient between air and the olfactory active substance, vapor pressure, polarity, molecular mass etc., predictions referring to the ODT of a substance are difficult to make. Table 2 indicates the ODT values of preferred embodiment in comparison to commercially available Brahmanol® (Symrise AG) and Sandranol® (Symrise AG). The ODT was measured using an olfactometer TO8 and a panel of at least four experts according to DIN standard EN 13725. According to the DIN standard EN 13725, the odor threshold value is defined as the concentration of an odorous substance at which, under defined test conditions, the probability of perceiving the sample is 0.5, i.e. 50% of the test persons indicate an odor perception. Thereby, the quantitative ODT value is given as the ratio of volume fractions of an odor-free comparison matrix, such as air, to the examined matrix at which the odor could just be perceived, i.e. a dilution factor.
For the compound `COCC1=CCC(CCC(C)CO)C1(C)C` (centres unmarked) [Compound 2, 4-[3-(Methoxymethyl)-2,2-dimethyl-cyclopent-3-en-1-yl]-2-methyl-butan-1-ol], the “ODT value lower by a factor” value worked out at 3.

The test is the same for the next values; noted with them: compared with Brahmanol.
Take `CC/C(=C\CC1CC=C(COC)C1(C)C)CO` (centres unmarked) [Compound 3, 2-Ethyl-4-[3-(methoxymethyl)-2,2-dimethyl-cyclopent-3-en-1-yl]but-2-en-1-ol]: the “threshold value reduced by the factor (in comparison to Brahmanol)” value is given as “about 10”.

Still in this test, the particulars now being: olfactometer TO8, panel of at least four experts, DIN EN 13725.
For the compound `CC1=CCC(CCC(C)CO)C1(C)C` (centres unmarked) [Brahmanol ®, 2-methyl-4-(2′,2′,3′-trimethyl-3′-cyclopenten-1′-yl)-butan-1-ol, reference compound], the ODT is 0.0173 ppm (v/v) and the ODT in air was 6.9 ng/L.
The matching figures for `COCC1=CCC(C/C=C(\C)CO)C1(C)C` (centres unmarked) [Compound 1, 4-[3-(Methoxymethyl)-2,2-dimethyl-cyclopent-3-en-1-yl]-2-methyl-but-2-en-1-ol]: 0.0089 ppm (v/v) and 7.1 ng/L.
The matching figures for `COCC1=CCC(CCC(C)CO)C1(C)C` (centres unmarked) [Compound 2, 4-[3-(Methoxymethyl)-2,2-dimethyl-cyclopent-3-en-1-yl]-2-methyl-butan-1-ol]: 0.00285 ppm (v/v) and 7.6 ng/L.
For `CC/C(=C\CC1CC=C(COC)C1(C)C)CO` (centres unmarked) [Compound 3, 2-Ethyl-4-[3-(methoxymethyl)-2,2-dimethyl-cyclopent-3-en-1-yl]but-2-en-1-ol], in that order: 0.0019 ppm (v/v) and 7.7 ng/L.
With `C=C(CC(C)CO)C1CC=C(COC)C1(C)C` (centres unmarked) [Compound 4, 4-[3-(Methoxymethyl)-2,2-dimethyl-cyclopent-3-en-1-yl]-2-methyl-pent-4-en-1-ol], the ODT is 0.0025 ppm (v/v) and the ODT in air was 7.6 ng/L.
The matching figures for `CC/C(=C\CC1CC=C(C)C1(C)C)CO` (centres unmarked) [Sandranol ®, 2-ethyl-4-(2′,2′,3′-trimethyl-3′-cyclopenten-1′-yl)-2-buten-1-ol, reference compound]: 0.000205 ppm (v/v) and 7.6 ng/L.
